Results taken from paper PMC8584989 (International Journal of Molecular Sciences, 2021).

Experiments:
[1] = system: HL60-ABCG2 cells; assay: XTT proliferation / drug combination assay; conditions: read-out: IC50 (IC50-shift analysis)
[2] = system: A431-par cells; assay: MTT proliferation / drug combination assay; type: cell-based; conditions: read-out: IC50 (IC50-shift analysis)
Protocol: (§1) These colorimetric assays were used in various studies presented in this paper (prior induction studies, MDR reversal experiments and comparative viability assays) and were performed as reported previously. […] In MTT experiments, cells were seeded on a 96-well culture plate at densities (in number of cells/well) of 1.3 × 10^4 for MDCKII-par, MDCKII-ABCB1 and MDCKII-ABCG2; 1.2 × 10^4 for A431-par, A431-ABCB1, A431-ABCG2 and A431-ABCC1; 1.2 × 10^4 for NCI-H1299; 1.0 × 10^4 for A459; 2.0 × 10^4 for Caco-2; 5.0 × 10^4 for LS174T; and 1.0 × 10^4 for primary NSCLC explants. On the other hand, for XTT cells were seeded with densities 2.0 × 10^4 for HL60-par, HL60-ABCB1, HL60-ABCG2 and HL60-ABCC1 cells/well on 96-well plates. […] Following 48 h incubation with drugs, Opti-MEM solutions of MTT or XTT (1 mg/mL) with phenazine methosulfate solution (7.50 μg/mL; only for XTT) was added and the cells were incubated for 1 h with the exception of HL60s that were incubated for 5 h.
(§2) Based on the computed CI values, the effects of drug combinations were classified as synergistic (CI < 0.9), additive (0.9 < CI < 1.1) or antagonistic (CI > 1.1).

[3] = system: A431-ABCG2 cells; assay: MTT proliferation / drug combination assay; conditions: read-out: IC50 (IC50-shift analysis)
[4] = system: HL60-par cells; assay: XTT proliferation / drug combination assay; type: cell-based; conditions: read-out: IC50 (IC50-shift analysis)
Protocol: as §1, §2

[5] = system: MDCKII-ABCB1 cells; assay: MTT proliferation / drug combination assay; conditions: Canis lupus familiaris, read-out: IC50 (IC50-shift analysis)
[6] = system: HL60-ABCB1 cells; assay: XTT proliferation / drug combination assay; conditions: read-out: IC50 (IC50-shift analysis)
[7] = system: MDCKII-parent cells; assay: MTT proliferation / drug combination assay; type: cell-based, canine; conditions: Canis lupus familiaris, read-out: IC50 (IC50-shift analysis)
Protocol: as §1, §2

[8] = system: A431-ABCB1 cells; assay: MTT proliferation / drug combination assay; conditions: read-out: IC50 (IC50-shift analysis)

Compound	IC50 [1]	IC50 [2]	IC50 [3]	IC50 [4]	IC50 [5]	IC50 [6]	IC50 [7]	IC50 [8]
O=C1c2c(O)ccc(O)c2C(=O)c2c(NCCNCCO)ccc(NCCNCCO)c21 [mitoxantrone]	669 nM	2100 nM	56.5 µM	30.5 nM	–	–	–	–
COc1cccc2c1C(=O)c1c(O)c3c(c(O)c1C2=O)C[C@@](O)(C(C)=O)C[C@@H]3O[C@H]1C[C@H](N)[C@H](O)[C@H](C)O1 [daunorubicin]	–	1990 nM	–	53.1 nM	11.9 µM	2140 nM	947 nM	21.7 µM
